In patent US10870652B2, “Compounds and methods for modulating bruton's tyrosine kinase” (CORVUS PHARMACEUTICALS, INC., priority 2016, dated 2020):

Columns and labels:
Format in all cases: biochemical
ITK = target: T1, ITK (Homo sapiens, UniProt Q08881); assay: ITK IC50 kinase inhibition assay
T1 sequence (Q08881 1-620): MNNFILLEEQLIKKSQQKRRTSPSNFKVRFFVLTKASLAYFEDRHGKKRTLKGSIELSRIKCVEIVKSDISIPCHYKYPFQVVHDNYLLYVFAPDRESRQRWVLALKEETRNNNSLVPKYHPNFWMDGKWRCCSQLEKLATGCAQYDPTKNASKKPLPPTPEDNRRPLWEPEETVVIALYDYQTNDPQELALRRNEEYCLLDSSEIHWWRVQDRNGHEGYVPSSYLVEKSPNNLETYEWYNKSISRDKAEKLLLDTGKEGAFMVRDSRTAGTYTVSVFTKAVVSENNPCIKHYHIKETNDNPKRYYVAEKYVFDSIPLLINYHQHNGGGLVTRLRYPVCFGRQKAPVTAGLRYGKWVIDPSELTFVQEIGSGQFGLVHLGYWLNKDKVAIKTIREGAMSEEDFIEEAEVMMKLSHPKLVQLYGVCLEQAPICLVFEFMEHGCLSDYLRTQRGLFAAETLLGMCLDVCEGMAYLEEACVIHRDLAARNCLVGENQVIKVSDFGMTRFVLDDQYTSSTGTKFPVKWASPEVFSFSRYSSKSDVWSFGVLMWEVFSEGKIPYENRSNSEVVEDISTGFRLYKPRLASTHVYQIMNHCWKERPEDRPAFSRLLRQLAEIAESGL

BTK = BTK (Homo sapiens, UniProt Q06187); assay: BTK IC50 kinase inhibition assay
JAK3 = target: T2, JAK3 (Homo sapiens, UniProt P52333); assay: JAK3 IC50 kinase inhibition assay
T2 sequence (P52333 1-1124): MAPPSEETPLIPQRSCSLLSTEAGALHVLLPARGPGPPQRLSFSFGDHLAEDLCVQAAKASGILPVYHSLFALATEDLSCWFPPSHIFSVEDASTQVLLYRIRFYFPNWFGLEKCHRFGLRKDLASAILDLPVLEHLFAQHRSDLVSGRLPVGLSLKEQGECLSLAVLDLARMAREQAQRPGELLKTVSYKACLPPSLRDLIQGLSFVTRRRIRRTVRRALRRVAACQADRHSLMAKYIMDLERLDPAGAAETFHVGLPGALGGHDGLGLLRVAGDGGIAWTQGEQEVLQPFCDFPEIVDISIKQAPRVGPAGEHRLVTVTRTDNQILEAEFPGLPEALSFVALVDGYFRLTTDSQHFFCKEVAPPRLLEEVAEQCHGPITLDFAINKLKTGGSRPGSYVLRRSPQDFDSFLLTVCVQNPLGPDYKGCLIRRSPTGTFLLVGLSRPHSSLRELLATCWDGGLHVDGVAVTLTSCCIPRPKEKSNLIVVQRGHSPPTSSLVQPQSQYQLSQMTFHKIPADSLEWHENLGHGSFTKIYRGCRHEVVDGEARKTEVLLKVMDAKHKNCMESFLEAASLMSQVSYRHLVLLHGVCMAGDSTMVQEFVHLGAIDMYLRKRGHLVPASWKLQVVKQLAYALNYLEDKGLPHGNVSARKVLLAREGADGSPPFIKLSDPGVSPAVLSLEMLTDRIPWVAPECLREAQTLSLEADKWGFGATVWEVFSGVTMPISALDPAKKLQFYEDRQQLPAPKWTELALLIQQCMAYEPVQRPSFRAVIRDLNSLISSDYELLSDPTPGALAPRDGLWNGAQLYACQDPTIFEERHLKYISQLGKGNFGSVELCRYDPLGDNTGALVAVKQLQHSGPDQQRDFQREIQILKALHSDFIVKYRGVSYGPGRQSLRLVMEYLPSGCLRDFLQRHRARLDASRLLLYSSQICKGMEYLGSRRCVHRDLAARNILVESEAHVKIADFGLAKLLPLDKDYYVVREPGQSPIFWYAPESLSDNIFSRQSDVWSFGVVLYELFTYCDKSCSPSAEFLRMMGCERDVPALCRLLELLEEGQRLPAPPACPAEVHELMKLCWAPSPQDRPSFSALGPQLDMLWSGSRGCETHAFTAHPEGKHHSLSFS

TXK = target: T3, TXK (Homo sapiens, UniProt P42681); assay: TXK IC50 kinase inhibition assay
T3 sequence (P42681 1-527): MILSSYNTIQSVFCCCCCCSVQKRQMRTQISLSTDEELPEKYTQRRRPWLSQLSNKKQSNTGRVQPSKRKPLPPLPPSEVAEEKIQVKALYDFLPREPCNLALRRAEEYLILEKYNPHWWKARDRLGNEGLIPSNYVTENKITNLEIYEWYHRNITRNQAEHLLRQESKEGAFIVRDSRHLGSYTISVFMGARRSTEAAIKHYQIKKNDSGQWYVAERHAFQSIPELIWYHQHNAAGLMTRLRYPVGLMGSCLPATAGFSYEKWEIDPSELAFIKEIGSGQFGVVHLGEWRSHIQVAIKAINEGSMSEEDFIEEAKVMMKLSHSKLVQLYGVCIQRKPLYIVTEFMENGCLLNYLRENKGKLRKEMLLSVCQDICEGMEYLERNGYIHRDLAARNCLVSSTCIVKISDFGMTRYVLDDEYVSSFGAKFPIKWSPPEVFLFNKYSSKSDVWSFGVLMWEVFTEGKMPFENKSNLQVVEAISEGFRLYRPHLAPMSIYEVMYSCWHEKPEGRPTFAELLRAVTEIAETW

Chain of BTK (Q06187 whole entry): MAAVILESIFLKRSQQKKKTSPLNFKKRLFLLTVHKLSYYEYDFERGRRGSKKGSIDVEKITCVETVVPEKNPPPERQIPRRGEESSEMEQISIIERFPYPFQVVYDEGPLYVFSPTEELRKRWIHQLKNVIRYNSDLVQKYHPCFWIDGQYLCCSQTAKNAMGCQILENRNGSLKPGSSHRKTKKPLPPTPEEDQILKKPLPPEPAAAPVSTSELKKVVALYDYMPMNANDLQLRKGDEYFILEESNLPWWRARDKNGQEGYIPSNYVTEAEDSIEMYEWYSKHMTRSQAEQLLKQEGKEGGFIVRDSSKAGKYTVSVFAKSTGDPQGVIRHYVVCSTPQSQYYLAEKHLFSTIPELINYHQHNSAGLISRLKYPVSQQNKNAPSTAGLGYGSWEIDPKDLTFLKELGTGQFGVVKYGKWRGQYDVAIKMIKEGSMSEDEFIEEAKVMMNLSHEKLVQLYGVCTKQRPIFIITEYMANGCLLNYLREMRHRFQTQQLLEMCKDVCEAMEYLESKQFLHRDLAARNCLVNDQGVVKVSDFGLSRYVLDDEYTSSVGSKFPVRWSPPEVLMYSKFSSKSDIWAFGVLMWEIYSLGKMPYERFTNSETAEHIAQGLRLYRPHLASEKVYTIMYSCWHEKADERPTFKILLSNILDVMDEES

## CC#CC(=O)N1CC(Cn2nc(-c3ccc(Oc4ccccc4)cc3)c3cncnc32)C1 [Compound A58, 1-(3-((3-(4-phenoxyphenyl)-1H-pyrazolo[3,4-d]pyrimidin-1-yl)methyl)azetidin-1-yl)but-2-yn-1-one]
ITK
  IC50: > 500 nM
BTK
  IC50: > 500 nM
JAK3
  IC50: > 500 nM
TXK
  IC50: > 500 nM

## CC#CC(=O)N1CCC(n2nc(-c3ccc(Oc4ccccc4)cc3)c3cncnc32)CC1 [Compound A59, 1-(4-(3-(4-phenoxyphenyl)-1H-pyrazolo[3,4-d]pyrimidin-1-yl)piperidin-1-yl)but-2-yn-1-one]
ITK
  IC50: > 500 nM
BTK
  IC50: 100 to 500 nM
JAK3
  IC50: > 500 nM
TXK
  IC50: > 500 nM

## CC#CC(=O)N1CC2(CC(n3nc(-c4ccc(Oc5ccccc5)cc4)c4cncnc43)C2)C1 [Compound A60, 1-(6-(3-(4-phenoxyphenyl)-1H-pyrazolo[3,4-d]pyrimidin-1-yl)-2-azaspiro[3.3]heptan-2-yl)but-2-yn-1-one]
ITK
  IC50: > 500 nM
BTK
  IC50: < 100 nM
JAK3
  IC50: > 500 nM
TXK
  IC50: < 100 nM

## CC#CC(=O)Nc1ccccc1Cn1nc(-c2ccc(Oc3ccccc3)cc2)c2cncnc21 [Compound A61, N-(2-((3-(4-phenoxyphenyl)-1H-pyrazolo[3,4-d]pyrimidin-1-yl)methyl)phenyl)but-2-ynamide]
ITK
  IC50: > 500 nM
BTK
  IC50: > 500 nM
JAK3
  IC50: > 500 nM
TXK
  IC50: < 100 nM

## C=C(F)C(=O)N1CCC[C@@H](n2nc(-c3ccc(Oc4ccccc4)cc3)c3cncnc32)C1 [Compound A62, (R)-2-fluoro-1-(3-(3-(4-phenoxyphenyl)-1H-pyrazolo[3,4-d]pyrimidin-1-yl)piperidin-1-yl)prop-2-en-1-one]
ITK
  IC50: > 500 nM
BTK
  IC50: 100 to 500 nM
JAK3
  IC50: > 500 nM
TXK
  IC50: 100 to 500 nM

## CC#CC(=O)N1CC[C@@H](Cn2nc(-c3ccc(Oc4ccccc4)cc3)c3cncnc32)C1 [Compound A63, (R)-1-(3-((3-(4-phenoxyphenyl)-1H-pyrazolo[3,4-d]pyrimidin-1-yl)methyl)pyrrolidin-1-yl)but-2-yn-1-one]
ITK
  IC50: > 500 nM
BTK
  IC50: 100 to 500 nM
JAK3
  IC50: > 500 nM
TXK
  IC50: > 500 nM

## CC#CC(=O)N1CC[C@H](Cn2nc(-c3ccc(Oc4ccccc4)cc3)c3cncnc32)C1 [Compound A64, (S)-1-(3-((3-(4-phenoxyphenyl)-1H-pyrazolo[3,4-d]pyrimidin-1-yl)methyl)pyrrolidin-1-yl)but-2-yn-1-one]
ITK
  IC50: > 500 nM
BTK
  IC50: < 100 nM
JAK3
  IC50: > 500 nM
TXK
  IC50: 100 to 500 nM

## CC#CC(=O)N1CCC[C@@H]1Cn1nc(-c2ccc(Oc3ccccc3)cc2)c2cncnc21 [Compound A65, (R)-1-(2-((3-(4-phenoxyphenyl)-1H-pyrazolo[3,4-d]pyrimidin-1-yl)methyl)pyrrolidin-1-yl)but-2-yn-1-one]
ITK
  IC50: > 500 nM
BTK
  IC50: 100 to 500 nM
JAK3
  IC50: > 500 nM
TXK
  IC50: > 500 nM

## CC#CC(=O)N1CC[C@H]1Cn1nc(-c2ccc(Oc3ccccc3)cc2)c2cncnc21 [Compound A66, (S)-1-(2-((3-(4-phenoxyphenyl)-1H-pyrazolo[3,4-d]pyrimidin-1-yl)methyl)azetidin-1-yl)but-2-yn-1-one]
ITK
  IC50: > 500 nM
BTK
  IC50: 100 to 500 nM
JAK3
  IC50: > 500 nM
TXK
  IC50: > 500 nM

## CC#CC(=O)N1CC[C@@H]1Cn1nc(-c2ccc(Oc3ccccc3)cc2)c2cncnc21 [Compound A67, (R)-1-(2-((3-(4-phenoxyphenyl)-1H-pyrazolo[3,4-d]pyrimidin-1-yl)methyl)azetidin-1-yl)but-2-yn-1-one]
ITK
  IC50: > 500 nM
BTK
  IC50: 100 to 500 nM
JAK3
  IC50: > 500 nM
TXK
  IC50: > 500 nM

## CC#CC(=O)N1CCC2(CC1)CC(n1nc(-c3ccc(Oc4ccccc4)cc3)c3cncnc31)C2 [Compound A68, 1-(2-(3-(4-phenoxyphenyl)-1H-pyrazolo[3,4-d]pyrimidin-1-yl)-7-azaspiro[3.5]nonan-7-yl)but-2-yn-1-one]
ITK
  IC50: > 500 nM
BTK
  IC50: > 500 nM
JAK3
  IC50: > 500 nM
TXK
  IC50: > 500 nM

## CC#CC(=O)N[C@H]1C[C@H](n2nc(-c3ccc(Oc4ccccc4)cc3)c3cncnc32)C1 [Compound A69, N-((1r,3r)-3-(3-(4-phenoxyphenyl)-1H-pyrazolo[3,4-d]pyrimidin-1-yl)cyclobutyl)but-2-ynamide]
ITK
  IC50: > 500 nM
BTK
  IC50: < 100 nM
JAK3
  IC50: > 500 nM
TXK
  IC50: > 500 nM

## CC#CC(=O)N[C@H]1CC[C@H](n2nc(-c3ccc(Oc4ccccc4)cc3)c3cncnc32)CC1 [Compound A70, N-((1r,4r)-4-(3-(4-phenoxyphenyl)-1H-pyrazolo[3,4-d]pyrimidin-1-yl)cyclohexyl)but-2-ynamide]
ITK
  IC50: > 500 nM
BTK
  IC50: > 500 nM
JAK3
  IC50: > 500 nM
TXK
  IC50: > 500 nM

## CCC#CC(=O)N1CC2(CC(n3nc(-c4ccc(Oc5ccccc5)cc4)c4cncnc43)C2)C1 [Compound A71, 1-(6-(3-(4-phenoxyphenyl)-1H-pyrazolo[3,4-d]pyrimidin-1-yl)-2-azaspiro[3.3]heptan-2-yl)pent-2-yn-1-one]
ITK
  IC50: > 500 nM
BTK
  IC50: 100 to 500 nM
JAK3
  IC50: > 500 nM
TXK
  IC50: 100 to 500 nM

## C=CC(=O)N1CCC[C@@H](n2nc(-c3ccc(Oc4ccccc4)cc3)c3cncc(C#N)c32)C1 [Compound A72, (R)-1-(1-acryloylpiperidin-3-yl)-3-(4-phenoxyphenyl)-1H-pyrazolo[4,3-c]pyridine-7-carbonitrile]
ITK
  IC50: > 500 nM
BTK
  IC50: < 100 nM
JAK3
  IC50: > 500 nM
TXK
  IC50: < 100 nM

## C=CC(=O)N1CC[C@@H](n2nc(-c3ccc(Oc4ccccc4)cc3)c3cncc(C#N)c32)C1 [Compound A73, (R)-1-(1-acryloylpyrrolidin-3-yl)-3-(4-phenoxyphenyl)-1H-pyrazolo[4,3-c]pyridine-7-carbonitrile]
ITK
  IC50: > 500 nM
BTK
  IC50: < 100 nM
JAK3
  IC50: > 500 nM
TXK
  IC50: < 100 nM

## C=CC(=O)N1CCC[C@H]1Cn1nc(-c2ccc(Oc3ccccc3)cc2)c2cncc(C#N)c21 [Compound A74, (S)-1-((1-Acryloylpyrrolidin-2-yl)methyl)-3-(4-phenoxyphenyl)-1H-pyrazolo[4,3-c]pyridine-7-carbonitrile]
ITK
  IC50: > 500 nM
BTK
  IC50: < 100 nM
JAK3
  IC50: > 500 nM
TXK
  IC50: > 500 nM

## CN(C)CC#CC(=O)N1CC2(CC(n3nc(-c4ccc(Oc5ccccc5)cc4)c4cncnc43)C2)C1 [Compound A75, 4-(dimethylamino)-1-(6-(3-(4-phenoxyphenyl)-1H-pyrazolo[3,4-d]pyrimidin-1-yl)-2-azaspiro[3.3]heptan-2-yl)but-2-yn-1-one]
ITK
  IC50: 100 to 500 nM
BTK
  IC50: < 100 nM
JAK3
  IC50: 100 to 500 nM
TXK
  IC50: < 100 nM
